Assay results from patent US8436006B2, “2-amino-quinazoline derivatives useful as inhibitors of β-secretase (BACE)” (Jansssen Pharmaceutica N.V., priority 2004, dated 2013).

Target: T1, β-secretase (BACE) (Homo sapiens, UniProt P56817)
T1 construct: purchased Panvera
Assay: BACE FS1% Inhibition Assay (Example 160)
Format: biochemical
Protocol: The following reagents were used in this assay: sodium acetate, PEB8000 (Sigma), DMSO, HEPES, FS1 substrate [[…]], β-secretase (BACE) (Panvera), and 96-well plate (HE microplate, Molecular Devices). […] The FS1-substrate stock solution was prepared in DMSO as a 10 mg/mL solution. The FS1-substrate working solution was prepared by diluting the 10 mg/mL stock solution with substrate assay buffer to a final concentration of 300 μg/mL. The β-secretase (BACE) working solution was prepared by diluting a 0.83 mg/mL BACE stock solution with enzyme assay buffer to a final concentration of 4 μg/mL. Test compounds were dissolved in DMSO to 10 mM. […] The screening procedure for this assay was as follows: 15 μL of BACE working solution was pipetted into each well of a 96-well plate. To each well was the pipetted 2 μL of test compound at the selected concentration. Test compound and BACE were then mixed with a pipettor and incubated for 20 min at room temperature. To each well was then added 10 μL of the FS1 substrate working solution. The plates were then incubated for 1 hour at room temperature. […] The procedure for the blank was as follows. 15 μL of assay buffer was pipetted into each well to be used as a blank control. To each well was then added 2 μL of vehicle and 10 μL of FS1-substrate working solution. The plates were then incubated for 1 hour at room temperature. […] The procedure for the positive control was as follows: 15 μL of BACE working solution was pipetted into each well to be used as a positive control. To each well was then pipetted 2 μL of vehicle. Vehicle and BACE were then mixed with a pipettor and incubated for 20 min at room temperature. To each well was then added 10 μL of the FS1 substrate working solution. The plates were then incubated for 1 hour at room temperature. […] For test compounds, % inhibition was determined at each concentration as follows: [formula]

T1 sequence (P56817 46-501): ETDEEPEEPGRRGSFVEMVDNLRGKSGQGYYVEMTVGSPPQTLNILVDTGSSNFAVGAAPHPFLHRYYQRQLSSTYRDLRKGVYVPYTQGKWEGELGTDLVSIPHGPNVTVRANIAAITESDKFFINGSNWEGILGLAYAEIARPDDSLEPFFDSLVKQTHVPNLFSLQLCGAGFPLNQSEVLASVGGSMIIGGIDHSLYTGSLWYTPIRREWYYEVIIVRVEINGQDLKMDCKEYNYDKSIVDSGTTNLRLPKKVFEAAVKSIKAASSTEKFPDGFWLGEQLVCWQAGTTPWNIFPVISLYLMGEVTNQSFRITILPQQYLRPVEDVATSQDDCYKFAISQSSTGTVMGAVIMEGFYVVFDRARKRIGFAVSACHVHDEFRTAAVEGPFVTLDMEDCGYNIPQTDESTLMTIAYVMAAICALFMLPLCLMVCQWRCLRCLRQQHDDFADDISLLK

SMILES | % Inhibition (FS) (0.3 μM test compound) [%] | % Inhibition (FS) (1 μM test compound) [%] | % Inhibition (FS) (3 μM test compound) [%]
COc1ccccc1-c1ccc2c(c1)CN(CCNC(=O)C1CCC(C(F)(F)F)CC1)C(N)=N2 (stereo not drawn) [Compound 698] | <30 | <30 | 64
CC(=O)N1CCC(C(=O)NCCN2Cc3cc(-c4ccccc4C)ccc3N=C2N)CC1 [Compound 695] | <30 | <30 | 54
CN(CCc1ccccc1)C(=O)CC[C@@H](C1CCCCC1)N1Cc2cc(-c3ccccc3F)ccc2N=C1N [Compound 727] | 46 | 80 | –
CCCCC(CC)C(=O)NCCN1Cc2cc(-c3ccc4ccccc4c3)ccc2N=C1N (stereo not drawn) [Compound 669] | <30 | <30 | 32
CC(=O)N1CCC(C(=O)NCCN2Cc3cc(C4=CCCCC4)ccc3N=C2N)CC1 [Compound 705] | <30 | <30 | <30
CN(CC(=O)O)C(=O)CCC(C1CCCCC1)N1Cc2cc(Oc3ccccc3)ccc2N=C1N (stereo not drawn) [Compound 767] | <30 | 71 | –
NC1=Nc2ccc(-c3ccccc3)cc2CN1CCNC(=O)CCC(F)(F)F [Compound 684] | 33 | 38 | 78
COc1cccc(F)c1-c1ccc2c(c1)CN(CCNC(=O)C1CCC(C(F)(F)F)CC1)C(N)=N2 (stereo not drawn) [Compound 700] | <30 | 36 | 85
COC(=O)C(COCc1ccccc1)N(C)C(=O)CCC(C1CCCCC1)N1Cc2cc(Oc3ccccc3)ccc2N=C1N (stereo not drawn) [Compound 780] | 69 | 97 | –
CN(Cc1csc(-c2ccccc2)n1)C(=O)CC[C@@H](C1CCCCC1)N1Cc2cc(-c3ccccc3F)ccc2N=C1N [Compound 722] | 35 | 35 | 78
CC(C)(C)C(=O)NCCN1Cc2cc(-c3cnc4ccccc4c3)ccc2N=C1N [Compound 674] | 36 | <30 | 41
COc1ccccc1-c1ccc2c(c1)CN(CCNC(=O)C1CCOCC1)C(N)=N2 [Compound 697] | <30 | <30 | 63
COc1cccc(F)c1-c1ccc2c(c1)CN(CCNC(=O)C1CCOCC1)C(N)=N2 [Compound 699] | 31 | 64 | 93
CN(C(=O)CCC(C)(C)N1Cc2cc(Oc3ccccc3)ccc2N=C1N)C1CCCCC1 [Compound 738] | 14 | 28 | 61
CCCC(CCC)C(=O)NCC(C1CCCCC1)N1Cc2cc(Oc3ccccc3)ccc2N=C1N (stereo not drawn) [Compound 302] | <30 | 72 | 108
COC(=O)Cc1cccc(CN(C)C(=O)CCC(C2CCCCC2)N2Cc3cc(Oc4ccccc4)ccc3N=C2N)c1 (stereo not drawn) [Compound 775] | <30 | 62 | –
Cc1ccccc1-c1ccc2c(c1)CN(CCNC(=O)CCC(F)(F)F)C(N)=N2 [Compound 678] | 51 | 88 | 99
CC(CC(=O)NCCN1Cc2cc(-c3ccccc3Cl)ccc2N=C1N)C(F)(F)F (stereo not drawn) [Compound 683] | 64 | 86 | –
NC1=Nc2ccc(-c3cnc4ccccc4c3)cc2CN1CCNC(=O)C1CCC1 [Compound 670] | <30 | <30 | 44
COC1CCCC(C(=O)NCCN2Cc3cc(-c4ccccc4)ccc3N=C2N)C1 (stereo not drawn) [Compound 703] | <30 | 46 | 83

SMILES | % Inhibition (FS) (0.3 μM test compound) [%] | % Inhibition (FS) (1 μM test compound) [%] | % Inhibition (FS) (3 μM test compound) [%]
COc1ccccc1-c1ccc2c(c1)CN([C@@H](CCC(=O)N(C)Cc1csc(-c3ccccc3)n1)C1CCCCC1)C(N)=N2 [Compound 716] | <30 | <30 | 72
COc1ccccc1-c1ccc2c(c1)CN([C@@H](CCC(=O)N(C)Cc1cc(-c3ccccc3)on1)C1CCCCC1)C(N)=N2 [Compound 719] | 31 | <30 | 81
CCCCC(CC)C(=O)NCCN1Cc2cc(-c3ccccc3C)ccc2N=C1N (stereo not drawn) [Compound 662] | 66 | 97 | –
CN(C(=O)CCC(C1CCCCC1)N1Cc2cc(Oc3ccccc3)ccc2N=C1N)C1CCC(C#N)CC1 (stereo not drawn) [Compound 769] | <30 | 61 | –
CCCCC(CC)C(=O)NCCN1Cc2cc(-c3cnc4ccccc4c3)ccc2N=C1N (stereo not drawn) [Compound 676] | 33 | <30 | 44
NC1=Nc2ccc(-c3ccccc3)cc2CN1CCNC(=O)C1CCC(C(F)(F)F)CC1 (stereo not drawn) [Compound 701] | <30 | <30 | 54
CCCCCC(CCC(=O)NC1CCCCC1)N1Cc2cc(Oc3ccccc3)ccc2N=C1N (stereo not drawn) [Compound 149] | 32 | 71 | 111
COC(=O)C1CCCC(N(C)C(=O)CCC(C2CCCCC2)N2Cc3cc(Oc4ccccc4)ccc3N=C2N)C1 (mixture of isomers) [Compound 777] | 38 | 97 | –
CC(C)[C@H](CNC(=O)C1CCCCC1)N1Cc2cc(Oc3ccccc3)ccc2N=C1N [Compound 561] | 114 | 118 | 125
CN(C(=O)CCC(C1CCCCC1)N1Cc2cc(Oc3ccccc3)ccc2N=C1N)C1CCC(C(=O)OCc2ccccc2)CC1 (stereo not drawn) [Compound 760] | <30 | 44 | 89
CN(C(=O)CC[C@@H](C1CCCCC1)N1Cc2ccc(Oc3ccccc3)cc2N=C1N)C1CCCCC1 [Compound 754] | 8 | 35 | 89
CN(Cc1cc(-c2ccccc2)on1)C(=O)CC[C@@H](C1CCCCC1)N1Cc2cc(-c3ccccc3F)ccc2N=C1N [Compound 724] | 38 | <30 | 65
NC1=Nc2ccc(-c3ccc4ccccc4c3)cc2CN1CCNC(=O)CCC(F)(F)F [Compound 686] | <30 | 73 | 80
COC1CCCC(C(=O)NCCN2Cc3cc(-c4ccccc4C)ccc3N=C2N)C1 (stereo not drawn) [Compound 696] | <30 | 72 | –
NC1=Nc2ccc(-c3ccc4ccccc4c3)cc2CN1CCNC(=O)C1CCCC1 [Compound 664] | <30 | <30 | <30
COc1ccccc1-c1ccc2c(c1)CN([C@@H](CCC(=O)N(C)Cc1cc(C)no1)C1CCCCC1)C(N)=N2 [Compound 718] | <30 | 30 | –
NC1=Nc2ccc(Oc3ccccc3)cc2CN1CCNC(=O)C1(c2ccc(Cl)cc2)CCCC1 [Compound 196] | 65 | 96 | 120
CC(=O)N1CCC(C(=O)NCCN2Cc3cc(-c4ccccc4Cl)ccc3N=C2N)CC1 [Compound 691] | <30 | <30 | 51
NC1=Nc2ccc(-c3cnc4ccccc4c3)cc2CN1CCNC(=O)C1CCCC1 [Compound 671] | <30 | 30 | <30
CN(C(=O)CCC(C1CCOCC1)N1Cc2cc(Oc3ccccc3)ccc2N=C1N)C1CCC(C(=O)O)CC1 (stereo not drawn) [Compound 743] | – | – | 130
